Legend:
[1] = system: cyclooxygenase (6-keto-PGF1α release); test: Cyclooxygenase inhibition: 6-keto-PGF1α release from zymosan-stimulated mouse peritoneal macrophage cells; type: cell-based; conditions: Peritoneal macrophage cell; zymosan-stimulated mouse peritoneal macrophage cells, 10^-5 mole/l; read-out: In vitro % inhibition upon release of 6-keto-PGF1α
Excerpt: 5. In vitro Determination of Cyclooxygenase Inhibition and 5-Lipoxygenase Inhibition
After a cell is activated, arachidonic acid contained in cell membranes is metabolized in two ways. Leucotrienes, inter alia leucotriene C4, are formed due to the action of the enzyme 5-lipoxyqenase (=5-LO), and prostanoids are formed due to the action of the enzyme cyclooxygenase (=CO). In in vitro systems these metabolites are secreted from the cell.
To evaluate the cyclooxygenase-inhibiting and 5-lipoxygenase-inhibiting properties of the test substances, their inhibitory activity on the biosynthesis of the arachidonic acid derivatives leucotriene C4 (=LTC4) and 6-keto-prostaglandin F1α (=6-keto-PGF1 α) was determined in vitro on mouse peritoneal macrophage cells. For this purpose the LTC4 and 6-keto-PGF1 α contents of a mouse peritoneal macrophage cell culture medium were determined by zymosan stimulation as described by Scott et al. (J. Exp. Med. 152 (1980), 324-335) and by Fradin et al., (Prostaglandins, 33 (1987), 579-589).
A cell suspension containing peritoneal cells from male mice 8-10 weeks old was obtained in a known manner. A solution marketed under the designation RPMI 1640 (Manufactured by Gibco) was used as the cell culture medium, to which heparin (10 international units/ml) and antibiotics were added according to the procedure of Bonney et al. (Biochem. J. 176 (1978) 422-433). The cell suspension was adjusted to a cell concentration of 10^6 cells per ml and distributed uniformly on titer dishes containing 24 1-ml titer cells (wells). These were kept for two hours in a humidified incubator filled with air enriched with 7% CO2. Cells not adhering to the titer well walls were then removed by washing. The remaining macrophage cells adhering to the walls were incubated for about 12 hours in a suspension medium to which 0.1% of bovine serum albumin (BSA=Bovine Serum Albumin) was added. The suspension medium was then replaced by a Hanks salt solution (=Hanks Balanced Salt Solution=HBSS) with 10 mmoles of Hepes (=hydroxyethylpiperazinoethanesulfonic acid) to which a 0.1% strength solution of the test substances in aqueous, 1% strength dimethylformamide or only the solvent had been added. After 15 minutes the arachidonic acid metabolism was stimulated by adding […] of zymosan (=glycoprotein mixture isolated from cell walls of beer yeast, Saccharomyces cerevisiae, Manufactured by Sigma Chemical Co., Munich) per titre cell. After 2 hours samples of the respective supernatant liquid in each cell were examined for their 6-keto-PGF1α and LTC4 contents by an enzyme immunoassay (=EIA). This EIA is carried out following the method of Pradelles et al. (Analytical Chem. 57 (1985), 1170-1173). The determination of LTC4 and the determination of 6-keto-PGF1α were each carried out on suitable dilutions of the samples (1:50 to 1:250 for the LTC4 determination and 1:250 to 1:1,250 for the 6-keto-PGF1α determination) in comparison with a comparative scale. To determine the inhibiting effect of a 10^-5 molar concentration of the compounds, the amounts of reference eicosanoid were determined, and the inhibiting effect was calculated therefrom in % inhibition compared to the measurements of the zymosan controls.

[2] = target: T1, histamine-(H1)-receptor (Cavia porcellus, UniProt P31389); test: Anti-histamine-(H1) effect, inhibition of histamine-induced contraction of isolated guinea pig ileum in vitro; type: cell-based, Dunkin Hartley guinea pigs; conditions: histamine 5 × 10^-6 mole/l, test substance 10^-6 mole/l
T1 construct: Segments of the ileum 1.5 cm long from Dunkin Hartley guinea pigs; from tissue; host or cells: isolated ileum segments of Dunkin Hartley guinea pigs
T1 sequence (P31389 whole entry): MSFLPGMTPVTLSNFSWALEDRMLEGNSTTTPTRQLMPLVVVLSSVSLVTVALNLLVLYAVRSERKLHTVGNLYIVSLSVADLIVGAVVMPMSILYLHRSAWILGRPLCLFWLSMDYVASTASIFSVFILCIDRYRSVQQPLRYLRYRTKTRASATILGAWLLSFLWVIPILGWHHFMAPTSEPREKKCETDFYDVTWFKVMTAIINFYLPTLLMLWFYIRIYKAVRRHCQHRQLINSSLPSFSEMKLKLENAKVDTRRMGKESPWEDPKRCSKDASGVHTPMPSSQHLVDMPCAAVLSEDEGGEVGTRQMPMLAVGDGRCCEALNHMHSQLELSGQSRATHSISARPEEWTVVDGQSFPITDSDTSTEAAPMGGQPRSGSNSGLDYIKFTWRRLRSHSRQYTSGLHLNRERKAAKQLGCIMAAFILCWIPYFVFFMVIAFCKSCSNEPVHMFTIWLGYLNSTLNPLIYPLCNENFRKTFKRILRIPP
Procedure: 3. Investigation of Anti-Histamine-(H1) Effect Based on Histamine-(H1)-Receptor Antagonism In Vitro
To investigate the histamine-(H1)-receptor antagonism of the test substances, the inhibiting effect of the substances on histamine-induced contractions of the smooth muscle was determined in vitro on the isolated organ. Isolated strips of organ from the ileum are suitable for this purpose. In an organ bath of physiological saline solution the smooth muscle strips react to the addition of histamine by contracting. […] The extent of regression of the contraction is an indication of the anti-histamine-(H1) activity of the compounds. The investigation was carried out analogously to the method originally described by Magnus (Pfluegers Arch. 102, 123 (1904)). Procedure for determining the smooth muscle contraction inhibiting effect on isolated guinea pig ileum induced by a 5×10^-6 molar histamine concentration.
Segments of the ileum 1.5 cm long from Dunkin Hartley guinea pigs having a body weight of 300 500 g were used for the test. Each strip was placed in an organ bath of 10 ml of physiological saline solution according to Krebs-Henseleit and attached to a conventional apparatus for isotonic measurement of changes in length of the ileum strips (automated Celaster measuring apparatus), so that the tissue was under 1 g of tension. The bath was kept at a pH of 7.4 and gassed with a mixture of 5% CO2 and 95% 02. After an equilibration phase, an isotonic contraction of the tissue was induced by adding histamine in a final concentration of 5×10^-6 mole/liter and washing it out again after a contact time of 30 seconds. Only tissues samples from which three reproducible contractions were obtained at 10 minute intervals were used in the subsequent test. The test substances were then added in a final concentration of 10^-6 mole/liter, and after 30 seconds contact time histamine was again added up to a concentration of 5×10^-6 mole/liter. The resulting contractions were measured over 30 seconds. The tissue was then washed several times over a period of 10 minutes. Histamine was then added again to stimulate a contraction. The resulting contractions were again measured over 30 seconds. The difference between the amplitude of the contraction obtained by histamine addition alone and the amplitude of the contraction obtained in the presence of the test substance was determined and expressed in terms of % inhibition.
The inhibiting effects on the contractions induced by histamine 30 seconds after administration of the test substance and on the contractions induced by the addition of histamine 10 minutes later are listed in the table.

## O=C1Nc2ccccc2SC1CCCN1CCC(Nc2nc3ccccc3n2Cc2ccc(F)cc2)CC1 (stereo not drawn) [Example 8]
[1]
  inhibition at 10 µM: 40%
[2]; after 30 seconds
  in vitro (H1)-receptor antagonism, % inhibition of histamine-induced ileum contractions after 30 seconds: 5%
[2]; after 10 minutes
  in vitro (H1)-receptor antagonism, % inhibition of histamine-induced ileum contractions after 10 minutes: 44%

From patent publication US5283243A, “Piperidinoalkylbenzoxazine and piperidinoalkylbenzothiazine compounds, and medicaments containing them” (Kali-Chemie Pharma GmbH, priority 1990, dated 1994)
